Results published in paper PMC3474971 (2012).
One block for each molecule: values may come before it.

What was measured:
[1] = tested on: thrombin-binding aptamer (TBA) (DNA, G4) GGTTGGTGTGGTTGG; test: fluorescence of dye-aptamer complex; conditions: 300 mM NaCl, 5 mM MgCl2, 10 mM KCl; 20 mM Tris-Cl pH 7.5, 25 °C; dye 25 nM, aptamer 10 nM
[2] = tested on: theophylline aptamer (RNA, aptamer) GGUGAUACCAGCAUCGUCUUGAUGCCCUUGGCAGCACC; test: fluorescence of dye-aptamer complex; conditions: 140 mM NaCl, 5 mM KCl, 5 mM MgCl2; 20 mM Tris-Cl pH 7.5, 25 °C; dye 25 nM, aptamer 10 nM
[3] = tested on: ATP aptamer (DNA, aptamer) ATAGCGGAGGAAGGATACCTGGGGGAGTATAT; test: fluorescence of dye-aptamer complex; conditions: 300 mM NaCl, 5 mM MgCl2, 10 mM KCl; 20 mM Tris-Cl pH 7.5, 25 °C; dye 25 nM, aptamer 10 nM
[4] = tested on: theophylline aptamer (RNA, aptamer) GGUGAUACCAGCAUCGUCUUGAUGCCCUUGGCAGCACC; test: fluorescence change of staining dye; conditions: 140 mM NaCl, 5 mM KCl, 5 mM MgCl2, 20 mM Tris-Cl pH 7.5, 25 °C, aptamer 10 nM
[5] = tested on: ATP aptamer (DNA, aptamer) ATAGCGGAGGAAGGATACCTGGGGGAGTATAT; test: fluorescence change of staining dye; conditions: 300 mM NaCl, 5 mM MgCl2, 10 mM KCl, 20 mM Tris-Cl pH 7.5, 25 °C, Hoechst 33258 25 nM as indicator, aptamer 10 nM

- binding [1]: yes
- binding [2]: yes
SMILES: CCCN(CCCN(C)C)c1cc(C=C2Sc3ccccc3N2C)c2ccccc2[n+]1-c1ccccc1

- binding [1]: yes
- binding [2]: yes
SMILES: CN1C(=Cc2cc[n+](C)c3ccccc23)Sc2ccccc21

- binding [3]: yes
SMILES: CN1CCN(c2ccc3nc(-c4ccc5nc(-c6ccc(O)cc6)[nH]c5c4)[nH]c3c2)CC1

- binding [1]: yes
- binding [3]: yes
SMILES: C[n+]1c(C=C2C=CN(CCC[N+](C)(C)CCC[N+](C)(C)CCCN3C=CC(=Cc4oc5ccccc5[n+]4C)c4ccccc43)c3ccccc32)oc2ccccc21

- binding ([4]; TO or SYBR Green 25 nM as indicator): yes
SMILES: Cn1c(=O)c2[nH]cnc2n(C)c1=O

- binding ([4]; TO 25 nM as indicator, huge excess of caffeine): no
SMILES: Cn1c(=O)c2c(ncn2C)n(C)c1=O

- binding ([5]; ~5% change, within error): no
SMILES: Nc1nc2c(ncn2[C@@H]2O[C@H](COP(=O)(O)OP(=O)(O)OP(=O)(O)O)[C@@H](O)[C@H]2O)c(=O)[nH]1

- binding [5]: yes
SMILES: Nc1ncnc2c1ncn2[C@@H]1O[C@H](COP(=O)(O)OP(=O)(O)OP(=O)(O)O)[C@@H](O)[C@H]1O
